Experiment: Confocal laser scanning microscopy of dye retention in CaCO3 nanoparticles
Assay type: physicochemical
Details: CLSM
From the text: Fluorescent images of FITC-dex (70 kDa) loaded CaCO3 nanoparticles were examined using confocal microscopy. Confocal micrographs of micro/nanoparticles were obtained with a flow view confocal laser scanning microscope (CLSM) equipped with a krypton-argon laser (Olympus FluoView™, Japan). An inverted microscope was also used which was equipped with an oil immersion objective lens (40×). The standard filter settings for fluorescence excitation (488 nm) and emission (520 nm) were used.

retention in CaCO3 nanoparticles: not retained
Structure (SMILES): O=C1OC2(c3ccc(O)cc3Oc3cc(O)ccc32)c2ccc(N=C=S)cc21 [FITC dye]

Reference: patent US20110229580A1, “COMPOSITIONS AND METHODS FOR NANO-IN-MICRO PARTICLES” (Indian Institute of Technology Bombay, School of …, priority 2010, published 2011)
